Experimental findings from US20250223281A1, “ANTIDIABETIC COMPOUNDS AND COMPOSITIONS” (REZUBIO PHARMACEUTICALS CO., LTD, priority 2022, published 2025) are described below.

For the assay, the target named is T1, GPR40 (Homo sapiens, UniProt O14842).
T1 construct: expressed in transfected cells; host or cells: HEK293 cells stably expressing GPR40 (Hygromycin selection)
The assay is described as follows: IP1 accumulation assay in HEK293 cells stably expressing GPR40. The assay is classed as cell-based. In outline: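 HEK293 cells stably expressing human GPR40 were incubated with compounds (10-point, 3-fold dilution series) for 2 h at 37 °C, then IP1 was detected by HTRF (665/615 nm ratio). Effect was normalised to DMSO blank and AMG-1638 as 100%, and EC50 was derived from dose curves.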

The mark [1] stands for this setting: IP1 accumulation, HEK293 cells stably expressing GPR40, 2 hours at 37° C., % effect relative to AMG-1638, table of Biological Example 1.
Setting [2] is: Table A-8 (additional examples), obtained by methods of Biological Example 1.
Setting [3] is: Tables A-1a to A-7b (structure-property relationship), obtained by methods of Biological Example 1.

T1 sequence (O14842 whole entry): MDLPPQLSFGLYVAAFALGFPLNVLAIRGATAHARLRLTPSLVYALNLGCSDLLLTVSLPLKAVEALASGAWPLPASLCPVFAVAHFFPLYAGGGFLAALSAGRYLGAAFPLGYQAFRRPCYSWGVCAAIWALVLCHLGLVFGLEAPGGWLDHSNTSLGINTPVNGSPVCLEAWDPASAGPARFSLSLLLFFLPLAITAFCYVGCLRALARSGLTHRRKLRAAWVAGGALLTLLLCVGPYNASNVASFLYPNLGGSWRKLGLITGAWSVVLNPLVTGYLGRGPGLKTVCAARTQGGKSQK

For the molecule `C[C@H](C(=O)O)[C@H](c1ccc2c(c1)O[C@@H](C1CCN(Cc3cc(-n4cc(CCCCCCCCCC(=O)NCC[N+](C)(CCC(=O)NCCN)CCC(=O)NCCN)nn4)ccc3OC(F)(F)F)CC1)CC2)C1CC1` [Example 194], the EC50 under setting [1] stood at 114 nM, the concentration giving a half-maximal response (EC50) under setting [2] came out at 94 nM and the EC50 under setting [3] was found to be 114 nM.
Take `COc1ccc(C(=O)N(CC(C)(C)CCn2cc(CCCCC(=O)NCCN(CCC(=O)NCCN)CCC(=O)NCCN)nn2)c2cccc(C)n2)c(N2CCC(COc3cc([C@@H](CC(=O)O)C4CC4)ccn3)CC2)c1` [Example 195]: under setting [1], the concentration giving a half-maximal response (EC50) is more than 10000 nM.
Take `COc1ccc(C(=O)N(CC(C)(C)CCn2cc(CCCCCCC(=O)NCCN(CCC(=O)NCCN)CCC(=O)NCCN)nn2)c2cccc(C)n2)c(N2CCC(COc3cc([C@@H](CC(=O)O)C4CC4)ccn3)CC2)c1` [Example 196]: the concentration for a half-maximal effect (EC50) runs as follows: under setting [1], 9870 nM; under setting [3], 9870 nM.
Consider `COc1ccc(C(=O)N(CC(C)(C)CCn2cc(CCCCCCCCCC(=O)NCCN(CCC(=O)NCCN)CCC(=O)NCCN)nn2)c2cccc(C)n2)c(N2CCC(COc3cc([C@@H](CC(=O)O)C4CC4)ccn3)CC2)c1` [Example 197], for which the half-maximal effective concentration (EC50) by setting is: under setting [1], 84.3 nM; under setting [2], 84 nM; under setting [3], 84.3 nM.
In turn, `COc1ccc(C(=O)N(CC(C)(C)CCn2cc(CCCCCCCCCCCCCCCC(=O)NCCN(CCC(=O)NCCN)CCC(=O)NCCN)nn2)c2cccc(C)n2)c(N2CCC(COc3cc([C@@H](CC(=O)O)C4CC4)ccn3)CC2)c1` [Example 198] showed a concentration giving a half-maximal response (EC50) under setting [1] of 0.17 nM, an EC50 under setting [2] of 0.17 nM and an EC50 under setting [3] of 0.17 nM.
Turning to `COc1ccc(C(=O)N(CC(C)(C)CCn2cc(CCCCC(=O)NCC[N+](C)(CCC(=O)NCCN)CCC(=O)NCCN)nn2)c2cccc(C)n2)c(N2CCC(COc3cc([C@@H](CC(=O)O)C4CC4)ccn3)CC2)c1` [Example 199], the 50% effective concentration (EC50) runs as follows: under setting [1], more than 10000 nM; under setting [3], more than 10000 nM.
`COc1ccc(C(=O)N(CC(C)(C)CCn2cc(CCCCCCC(=O)NCC[N+](C)(CCC(=O)NCCN)CCC(=O)NCCN)nn2)c2cccc(C)n2)c(N2CCC(COc3cc([C@@H](CC(=O)O)C4CC4)ccn3)CC2)c1` [Example 200]: the half-maximal effective concentration (EC50) was more than 10000 nM under setting [1] and more than 10000 nM under setting [3].
Take `COc1ccc(C(=O)N(CC(C)(C)CCn2cc(CCCCCCCCCC(=O)NCC[N+](C)(CCC(=O)NCCN)CCC(=O)NCCN)nn2)c2cccc(C)n2)c(N2CCC(COc3cc([C@@H](CC(=O)O)C4CC4)ccn3)CC2)c1` [Example 201]: the 50% effective concentration (EC50) by setting is: under setting [1], 44.6 nM; under setting [2], 45 nM; under setting [3], 45 nM.
As for `COc1ccc(C(=O)N(CC(C)(C)CCn2cc(CCCCCCCCCCCCCCCC(=O)NCC[N+](C)(CCC(=O)NCCN)CCC(=O)NCCN)nn2)c2cccc(C)n2)c(N2CCC(COc3cc([C@@H](CC(=O)O)C4CC4)ccn3)CC2)c1` [Example 202], the EC50 is, setting by setting: under setting [1], 0.16 nM; under setting [2], 0.16 nM; under setting [3], 0.16 nM.
The molecule `COc1ccc(C(=O)N(CC(C)(C)CCCCCCn2cc(CCCCCCCCC(=O)NCCCN(CC(=O)O)CC(=O)O)nn2)c2cccc(C)n2)c(N2CCC(COc3cc([C@@H](CC(=O)O)C4CC4)ccn3)CC2)c1` [Example 203] returned a concentration for a half-maximal effect (EC50) under setting [1] of 11.9 nM. That is a double-digit nanomolar value.
Same read-out and setting: as for `COc1ccc(C(=O)N(CC(C)(C)CCCCCCn2cc(CCCCCCCCCC(=O)NCCCN(CC(=O)O)CC(=O)O)nn2)c2cccc(C)n2)c(N2CCC(COc3cc([C@@H](CC(=O)O)C4CC4)ccn3)CC2)c1` [Example 204], the figure is 7 nM; as for `COc1ccc(C(=O)N(CC(C)(C)CCCCCCn2cc(CCCCCCCCCCCC(=O)NCCCN(CC(=O)O)CC(=O)O)nn2)c2cccc(C)n2)c(N2CCC(COc3cc([C@@H](CC(=O)O)C4CC4)ccn3)CC2)c1` [Example 205], 0.93 nM.
As for `COc1ccc(C(=O)N(CC(C)(C)CCCCCCn2cc(CCCCCCCCCCCCCC(=O)NCCCN(CC(=O)O)CC(=O)O)nn2)c2cccc(C)n2)c(N2CCC(COc3cc([C@@H](CC(=O)O)C4CC4)ccn3)CC2)c1` [Example 206], the EC50 under setting [1] was determined as 0.59 nM.
On the same count and under the same terms, the result for `COc1ccc(C(=O)N(CC(C)(C)CCCCCCn2cc(CCCCCCCCC(=O)NCCC[N+](C)(CC(=O)[O-])CC(=O)O)nn2)c2cccc(C)n2)c(N2CCC(COc3cc([C@@H](CC(=O)O)C4CC4)ccn3)CC2)c1` (stereo partly drawn) [Example 207] reads 20.5 nM; that for `COc1ccc(C(=O)N(CC(C)(C)CCCCCCn2cc(CCCCCCCCCC(=O)NCCC[N+](C)(CC(=O)[O-])CC(=O)O)nn2)c2cccc(C)n2)c(N2CCC(COc3cc([C@@H](CC(=O)O)C4CC4)ccn3)CC2)c1` (stereo partly drawn) [Example 208], 5.15 nM.
On the same count and under the same terms, as for `COc1ccc(C(=O)N(CC(C)(C)CCCCCCn2cc(CCCCCCCCCCCC(=O)NCCC[N+](C)(CC(=O)[O-])CC(=O)O)nn2)c2cccc(C)n2)c(N2CCC(COc3cc([C@@H](CC(=O)O)C4CC4)ccn3)CC2)c1` (stereo partly drawn) [Example 209], the figure is 1 nM; as for `COc1ccc(C(=O)N(CC(C)(C)CCCCCCn2cc(CCCCCCCCCCCCCC(=O)NCCC[N+](C)(CC(=O)[O-])CC(=O)O)nn2)c2cccc(C)n2)c(N2CCC(COc3cc([C@@H](CC(=O)O)C4CC4)ccn3)CC2)c1` (stereo partly drawn) [Example 210], 0.54 nM; as for `COc1ccc(C(=O)N(CC(C)(C)CCCCCCn2cc(CCCCC(=O)NCCC[N+](C)(CC(=O)[O-])CC(=O)O)nn2)c2cccc(C)n2)c(N2CCC(COc3cc([C@@H](CC(=O)O)C4CC4)ccn3)CC2)c1` (stereo partly drawn) [Example 211], 66.3 nM.
Same read-out and setting: the result for `COc1ccc(C(=O)N(CC(C)(C)CCCCCCn2cc(CCCCCCC(=O)NCCC[N+](C)(CC(=O)[O-])CC(=O)O)nn2)c2cccc(C)n2)c(N2CCC(COc3cc([C@@H](CC(=O)O)C4CC4)ccn3)CC2)c1` (stereo partly drawn) [Example 212] reads 143 nM.
Consider `COc1ccc(F)c(-c2ccc(COc3cccc([C@@H](CC(=O)O)C4CC4)c3)cc2CC(C)(C)Cn2cc(CCCCC(=O)NCCC[N+](C)(CC(=O)[O-])CC(=O)O)nn2)c1` (stereo partly drawn) [Example 213], for which the EC50 under setting [1] came to 358 nM.
For the molecule `COc1ccc(C(=O)N(CC(C)(C)CCn2cc(CCCCCCCCC(=O)NCCCN(CC(=O)O)CC(=O)O)nn2)c2cccc(C)n2)c(N2CCC(COc3cc([C@@H](CC(=O)O)C4CC4)ccn3)CC2)c1` [Example 215], the EC50 came to 1360 nM under setting [1] and 1360 nM under setting [3].
As for `COc1ccc(C(=O)N(CC(C)(C)CCn2cc(CCCCCCCCCCCCCCCC(=O)NCCCN(CC(=O)O)CC(=O)O)nn2)c2cccc(C)n2)c(N2CCC(COc3cc([C@@H](CC(=O)O)C4CC4)ccn3)CC2)c1` [Example 216], the half-maximal effective concentration (EC50) worked out at 0.48 nM under setting [1] and 0.48 nM under setting [3].
For the molecule `COc1ccc(C(=O)N(CC(C)(C)CCn2cc(CCCCCCCCC(=O)NCCC[N+](C)(CC(=O)[O-])CC(=O)O)nn2)c2cccc(C)n2)c(N2CCC(COc3cc([C@@H](CC(=O)O)C4CC4)ccn3)CC2)c1` (stereo partly drawn) [Example 217], the 50% effective concentration (EC50) runs as follows: under setting [1], 683 nM; under setting [3], 683 nM.
Consider `COc1ccc(C(=O)N(CC(C)(C)CCn2cc(CCCCCCCCCCCCCCCC(=O)NCCC[N+](C)(CC(=O)[O-])CC(=O)O)nn2)c2cccc(C)n2)c(N2CCC(COc3cc([C@@H](CC(=O)O)C4CC4)ccn3)CC2)c1` (stereo partly drawn) [Example 218], for which the 50% effective concentration (EC50) was determined as 0.44 nM under setting [1] and 0.44 nM under setting [3].
On to `COc1ccc(F)c(-c2ccc(COc3cccc([C@@H](CC(=O)O)C4CC4)c3)cc2CC(C)(C)Cn2cc(CCCCC(=O)NCCN(CCC(=O)NCCN)CCC(=O)NCCN)nn2)c1` [Example 219], for which the EC50 under setting [1] is more than 10000 nM.
On to `COc1ccc(F)c(-c2ccc(COc3cccc([C@@H](CC(=O)O)C4CC4)c3)cc2CC(C)(C)Cn2cc(CCCCCCCCC(=O)NCCN(CCC(=O)NCCN)CCC(=O)NCCN)nn2)c1` [Example 220], for which the half-maximal effective concentration (EC50) by setting is: under setting [1], more than 10000 nM; under setting [3], more than 10000 nM.
Regarding `COc1ccc(C(=O)N(CC(C)(C)CCn2cc(CCCCCCCCC=CCCCCCCCCC(=O)NCCC[N+]34CCN(CC3)CC4)nn2)c2cccc(C)n2)c(N2CCC(COc3cc([C@@H](CC(=O)O)C4CC4)ccn3)CC2)c1` [Example 221], under setting [1], it took 0.98 nM to reach a half-maximal effect (EC50).

One may read the EC50 as the concentration giving half of the maximal effect. The low end stands for greater potency, the high end for weaker potency.
